In general, IC50 refers to the concentration at which inhibition is half-maximal. In general, inhibition refers to the percentage by which the read-out fell short of the control. High values mean a response far below the control, low ones a response near the control.

The target of one series is Nav 1.5 (Homo sapiens (Human), UniProt Q14524). The series is described as follows: Inhibition of sodium channels, Red Membrane Potential Dye FLIPR assay, veratridine depolarization. The class given is cell-based. The following applies: HEK-293 cells overexpressing the channel; for inhibition at 10 µM: HEK-293 cells overexpressing Nav 1.5.
Nav 1.5, sequence (Q14524 whole entry): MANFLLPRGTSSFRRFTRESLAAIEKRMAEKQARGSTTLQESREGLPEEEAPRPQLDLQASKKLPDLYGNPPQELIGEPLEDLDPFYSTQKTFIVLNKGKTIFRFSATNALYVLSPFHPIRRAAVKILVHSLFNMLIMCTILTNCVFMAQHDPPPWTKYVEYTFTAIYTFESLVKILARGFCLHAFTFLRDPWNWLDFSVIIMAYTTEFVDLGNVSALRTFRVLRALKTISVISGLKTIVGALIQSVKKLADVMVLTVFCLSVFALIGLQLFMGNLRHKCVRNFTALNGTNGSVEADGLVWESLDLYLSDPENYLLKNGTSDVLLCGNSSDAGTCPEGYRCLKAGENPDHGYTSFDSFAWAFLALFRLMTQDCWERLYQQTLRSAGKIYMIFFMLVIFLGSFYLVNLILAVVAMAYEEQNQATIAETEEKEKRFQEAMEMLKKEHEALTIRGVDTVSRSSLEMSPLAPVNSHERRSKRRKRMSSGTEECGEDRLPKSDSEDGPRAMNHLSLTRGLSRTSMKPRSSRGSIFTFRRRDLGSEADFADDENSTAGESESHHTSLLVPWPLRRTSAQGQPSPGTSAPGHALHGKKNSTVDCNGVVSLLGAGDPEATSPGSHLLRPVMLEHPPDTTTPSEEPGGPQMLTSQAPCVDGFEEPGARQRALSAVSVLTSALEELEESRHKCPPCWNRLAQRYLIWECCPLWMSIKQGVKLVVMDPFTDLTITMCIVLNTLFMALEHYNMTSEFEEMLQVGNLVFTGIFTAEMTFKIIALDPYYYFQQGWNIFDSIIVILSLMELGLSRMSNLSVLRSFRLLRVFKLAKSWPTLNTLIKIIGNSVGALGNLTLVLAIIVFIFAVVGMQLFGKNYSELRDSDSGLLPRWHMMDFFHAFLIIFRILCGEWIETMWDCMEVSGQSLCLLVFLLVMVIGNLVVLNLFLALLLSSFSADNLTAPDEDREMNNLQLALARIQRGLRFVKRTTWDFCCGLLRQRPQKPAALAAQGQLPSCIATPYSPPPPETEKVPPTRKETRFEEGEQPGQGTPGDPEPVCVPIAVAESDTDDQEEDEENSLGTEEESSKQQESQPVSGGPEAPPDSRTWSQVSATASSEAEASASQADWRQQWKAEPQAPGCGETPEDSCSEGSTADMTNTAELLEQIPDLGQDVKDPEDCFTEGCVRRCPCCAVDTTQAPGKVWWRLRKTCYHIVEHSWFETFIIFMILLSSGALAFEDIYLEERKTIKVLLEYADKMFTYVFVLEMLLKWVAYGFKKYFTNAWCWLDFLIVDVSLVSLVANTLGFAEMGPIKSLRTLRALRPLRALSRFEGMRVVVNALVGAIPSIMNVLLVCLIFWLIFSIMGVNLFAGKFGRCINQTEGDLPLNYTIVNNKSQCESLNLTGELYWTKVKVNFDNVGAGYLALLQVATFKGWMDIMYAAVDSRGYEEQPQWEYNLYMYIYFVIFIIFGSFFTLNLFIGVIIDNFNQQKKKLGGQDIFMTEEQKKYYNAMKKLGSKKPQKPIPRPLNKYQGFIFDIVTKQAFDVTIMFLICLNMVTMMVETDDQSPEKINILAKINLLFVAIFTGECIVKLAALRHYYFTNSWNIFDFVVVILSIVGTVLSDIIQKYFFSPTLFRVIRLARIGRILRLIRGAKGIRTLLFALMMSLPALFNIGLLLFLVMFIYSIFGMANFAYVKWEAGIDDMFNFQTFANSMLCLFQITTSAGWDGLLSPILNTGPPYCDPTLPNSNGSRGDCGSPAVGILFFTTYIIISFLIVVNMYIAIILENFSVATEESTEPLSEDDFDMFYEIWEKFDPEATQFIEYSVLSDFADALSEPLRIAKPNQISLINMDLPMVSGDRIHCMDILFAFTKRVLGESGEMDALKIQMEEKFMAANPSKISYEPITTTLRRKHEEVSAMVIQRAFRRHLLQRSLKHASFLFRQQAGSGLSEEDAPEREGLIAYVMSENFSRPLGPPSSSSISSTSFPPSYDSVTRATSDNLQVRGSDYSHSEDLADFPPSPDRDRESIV
In the next series the target is Nav 1.7 (Homo sapiens (Human), UniProt Q15858). The description is as above. It counts as cell-based. Particulars: HEK-293 cells overexpressing the channel; read-out: Nav1.7 IC50.
Nav 1.7, sequence (Q15858 whole entry): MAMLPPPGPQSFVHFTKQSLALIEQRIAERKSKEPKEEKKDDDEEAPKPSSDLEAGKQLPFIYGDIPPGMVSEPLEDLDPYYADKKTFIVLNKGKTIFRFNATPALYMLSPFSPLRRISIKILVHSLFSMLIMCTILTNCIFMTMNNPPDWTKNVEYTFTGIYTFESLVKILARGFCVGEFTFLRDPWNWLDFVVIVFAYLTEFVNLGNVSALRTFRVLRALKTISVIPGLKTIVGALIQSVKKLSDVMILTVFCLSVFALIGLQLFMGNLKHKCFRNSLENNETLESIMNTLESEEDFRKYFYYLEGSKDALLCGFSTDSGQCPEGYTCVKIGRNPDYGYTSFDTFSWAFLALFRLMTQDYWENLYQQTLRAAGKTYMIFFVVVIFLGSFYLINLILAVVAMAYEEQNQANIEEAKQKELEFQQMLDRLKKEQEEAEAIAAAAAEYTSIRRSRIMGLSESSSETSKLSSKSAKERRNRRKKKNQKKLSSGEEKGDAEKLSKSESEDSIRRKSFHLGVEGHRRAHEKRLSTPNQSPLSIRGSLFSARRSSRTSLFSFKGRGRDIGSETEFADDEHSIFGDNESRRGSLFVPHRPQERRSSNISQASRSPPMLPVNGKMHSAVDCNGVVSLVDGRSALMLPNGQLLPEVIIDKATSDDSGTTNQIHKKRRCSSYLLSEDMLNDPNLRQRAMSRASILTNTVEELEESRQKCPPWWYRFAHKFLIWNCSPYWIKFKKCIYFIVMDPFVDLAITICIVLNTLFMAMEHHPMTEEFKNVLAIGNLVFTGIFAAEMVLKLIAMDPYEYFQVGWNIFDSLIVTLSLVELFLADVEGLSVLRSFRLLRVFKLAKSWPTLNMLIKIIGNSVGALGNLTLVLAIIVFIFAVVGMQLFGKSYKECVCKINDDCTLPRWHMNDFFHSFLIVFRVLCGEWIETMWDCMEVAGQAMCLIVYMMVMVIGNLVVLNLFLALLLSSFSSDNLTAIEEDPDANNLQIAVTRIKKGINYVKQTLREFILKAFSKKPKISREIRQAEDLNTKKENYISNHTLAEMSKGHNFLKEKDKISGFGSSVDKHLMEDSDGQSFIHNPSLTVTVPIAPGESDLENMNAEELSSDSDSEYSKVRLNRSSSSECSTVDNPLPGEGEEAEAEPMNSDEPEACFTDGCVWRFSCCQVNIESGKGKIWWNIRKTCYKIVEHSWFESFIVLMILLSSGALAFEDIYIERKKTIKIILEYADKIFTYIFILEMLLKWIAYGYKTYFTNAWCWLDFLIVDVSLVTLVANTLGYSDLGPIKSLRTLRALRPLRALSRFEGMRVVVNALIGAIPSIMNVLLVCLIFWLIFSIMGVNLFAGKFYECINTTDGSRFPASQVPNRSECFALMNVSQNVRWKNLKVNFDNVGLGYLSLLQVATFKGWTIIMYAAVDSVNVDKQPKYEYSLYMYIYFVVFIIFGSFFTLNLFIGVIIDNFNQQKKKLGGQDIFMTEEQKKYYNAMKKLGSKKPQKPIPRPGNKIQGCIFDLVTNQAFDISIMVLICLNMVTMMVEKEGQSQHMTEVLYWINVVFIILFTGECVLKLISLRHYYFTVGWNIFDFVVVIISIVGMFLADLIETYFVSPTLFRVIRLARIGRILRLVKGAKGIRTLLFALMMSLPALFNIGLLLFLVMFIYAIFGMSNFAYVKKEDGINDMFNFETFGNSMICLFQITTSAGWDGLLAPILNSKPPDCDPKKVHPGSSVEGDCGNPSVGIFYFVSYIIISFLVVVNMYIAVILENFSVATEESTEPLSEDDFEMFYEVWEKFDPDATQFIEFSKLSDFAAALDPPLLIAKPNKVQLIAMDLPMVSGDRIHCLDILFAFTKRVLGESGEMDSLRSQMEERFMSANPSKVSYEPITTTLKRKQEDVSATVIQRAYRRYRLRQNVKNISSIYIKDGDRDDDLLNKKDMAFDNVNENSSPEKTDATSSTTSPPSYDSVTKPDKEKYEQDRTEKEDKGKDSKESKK
Setting [1] is: read-out: Nav1.5 IC50 (bound given in μM).

Each structure is given as a SMILES string. Like-named read-outs stand apart in the source and are kept apart here.

As for `COCCCc1cc(C(F)(F)F)ccc1[C@H]1CCOc2cc(S(=O)(=O)Nc3ncc(F)cn3)ccc21` (racemic) [Example 142, (R/S)—N-(5-fluoropyrimidin-2-yl)-4-(2-(3-methoxypropyl)-4-(trifluoromethyl)phenyl)chroman-7-sulfonamide], the IC50 was more than 10 µM at Nav 1.5 (setting [1]) and 179 nM on Nav 1.7.
Regarding `COCCCc1cc(C(F)(F)F)ccc1[C@H]1CCOc2cc(S(=O)(=O)Nc3ccncn3)ccc21` (racemic) [Example 143, (R/S)-4-(2-(3-methoxypropyl)-4-(trifluoromethyl)phenyl)-N-(pyrimidin-4-yl)chroman-7-sulfonamide], the IC50 came to 0.534 µM on Nav 1.5 (read-out: Nav1.5 IC50) and 16 nM at Nav 1.7.
For `COCCCc1cc(C(F)(F)F)ccc1[C@H]1CCOc2cc(S(=O)(=O)Nc3cccnn3)ccc21` (racemic) [Example 144, (R/S)-4-(2-(3-methoxypropyl)-4-(trifluoromethyl)phenyl)-N-(pyridazin-3-yl)chroman-7-sulfonamide], the IC50 at Nav 1.5 (read-out: Nav1.5 IC50) is 2.68 µM; on Nav 1.7, 86 nM.
As to `COCCCc1cc(C(F)(F)F)ccc1[C@H]1CCOc2cc(S(=O)(=O)Nc3cccc(F)n3)ccc21` (racemic) [Example 145, (R/S)—N-(6-fluoropyridin-2-yl)-4-(2-(3-methoxypropyl)-4-(trifluoromethyl)phenyl)chroman-7-sulfonamide], the IC50 is 2.41 µM at Nav 1.5 (read-out: Nav1.5 IC50) and 19 nM at Nav 1.7.
As to `COCCCCc1cc(C(F)(F)F)ccc1[C@H]1CCOc2cc(S(=O)(=O)Nc3ncc(F)cn3)ccc21` (racemic) [Example 148, (R/S)—N-(5-fluoropyrimidin-2-yl)-4-(2-(4-methoxybutyl)-4-(trifluoromethyl)phenyl)chroman-7-sulfonamide], the half-inhibitory concentration (IC50) on Nav 1.5 (setting [1]) was more than 10 µM; at Nav 1.7, 172 nM.
On Nav 1.5, `COCCCCc1cc(C(F)(F)F)ccc1[C@H]1CCOc2cc(S(=O)(=O)Nc3ccncn3)ccc21` (racemic) [Example 149, (R/S)-4-(2-(4-methoxybutyl)-4-(trifluoromethyl)phenyl)-N-(pyrimidin-4-yl)chroman-7-sulfonamide] came in with an inhibition at 10 µM of 58%. At Nav 1.7, the IC50 was 21 nM.
Regarding `COCCCCc1cc(C(F)(F)F)ccc1[C@H]1CCOc2cc(S(=O)(=O)Nc3cccnn3)ccc21` (racemic) [Example 150, (R/S)-4-(2-(4-methoxybutyl)-4-(trifluoromethyl)phenyl)-N-(pyridazin-3-yl)chroman-7-sulfonamide], the values for the IC50 on Nav 1.5 (read-out: Nav1.5 IC50) and at Nav 1.7 were 1.43 µM and 31 nM, respectively.
Molecule `O=S(=O)(Nc1ncccn1)c1ccc2c(c1)OCC[C@@H]2c1ccc(C(F)(F)F)cc1CCF` (racemic) [Example 153, (R/S)-4-(2-(2-fluoroethyl)-4-(trifluoromethyl)phenyl)-N-(pyrimidin-2-yl)chroman-7-sulfonamide] yielded an inhibition at 10 µM against Nav 1.5 of 35%. For the same molecule, at Nav 1.7, the IC50 came out at 39 nM.
With `O=S(=O)(Nc1ncc(F)cn1)c1ccc2c(c1)OCC[C@@H]2c1ccc(C(F)(F)F)cc1CCF` (racemic) [Example 154, (R/S)-4-(2-(2-fluoroethyl)-4-(trifluoromethyl)phenyl)-N-(5-fluoropyrimidin-2-yl)chroman-7-sulfonamide], the results for the IC50 at Nav 1.5 (setting [1]) and on Nav 1.7 were more than 10 µM and 83 nM, respectively.
Take `O=S(=O)(Nc1ccncn1)c1ccc2c(c1)OCC[C@@H]2c1ccc(C(F)(F)F)cc1CCF` (racemic) [Example 155, (R/S)-4-(2-(2-fluoroethyl)-4-(trifluoromethyl)phenyl)-N-(pyrimidin-4-yl)chroman-7-sulfonamide]: the IC50 at Nav 1.5 (setting [1]) is more than 10 µM; on Nav 1.7, 4 nM.
At Nav 1.5, `O=S(=O)(Nc1cccnn1)c1ccc2c(c1)OCC[C@@H]2c1ccc(C(F)(F)F)cc1CCF` (racemic) [Example 156, (R/S)-4-(2-(2-fluoroethyl)-4-(trifluoromethyl)phenyl)-N-(pyridazin-3-yl)chroman-7-sulfonamide] showed an inhibition at 10 µM of 36%. Also, on Nav 1.7, the IC50 amounted to 42 nM.
Take `O=S(=O)(Nc1cccc(F)n1)c1ccc2c(c1)OCC[C@@H]2c1ccc(C(F)(F)F)cc1CCF` (racemic) [Example 157, (R/S)-4-(2-(2-fluoroethyl)-4-(trifluoromethyl)phenyl)-N-(6-fluoropyridin-2-yl)chroman-7-sulfonamide]: the IC50 was more than 10 µM on Nav 1.5 (setting [1]) and 42 nM at Nav 1.7.
`O=S(=O)(Nc1ncccn1)c1ccc2c(c1)OCC[C@@H]2c1ccc(C(F)(F)F)cc1CCCF` (racemic) [Example 158, (R/S)-4-(2-(3-fluoropropyl)-4-(trifluoromethyl)phenyl)-N-(pyrimidin-2-yl)chroman-7-sulfonamide]: the IC50 at Nav 1.5 (read-out: Nav1.5 IC50) is 0.505 µM; at Nav 1.7 it was 130 nM.
Consider `O=S(=O)(Nc1ncc(F)cn1)c1ccc2c(c1)OCC[C@@H]2c1ccc(C(F)(F)F)cc1CCCF` (racemic) [Example 159, (R/S)-4-(2-(3-fluoropropyl)-4-(trifluoromethyl)phenyl)-N-(5-fluoropyrimidin-2-yl)chroman-7-sulfonamide], for which the results for the IC50 at Nav 1.5 (read-out: Nav1.5 IC50) and on Nav 1.7 were 0.943 µM and 10 nM, respectively.
Regarding `O=S(=O)(Nc1ccncn1)c1ccc2c(c1)OCC[C@@H]2c1ccc(C(F)(F)F)cc1CCCF` (racemic) [Example 160, (R/S)-4-(2-(3-fluoropropyl)-4-(trifluoromethyl)phenyl)-N-(pyrimidin-4-yl)chroman-7-sulfonamide], testing at 10 µM against Nav 1.5 gave an inhibition of 61%. Also, on Nav 1.7, the IC50 amounted to 0.7 nM.
Take `O=S(=O)(Nc1cccnn1)c1ccc2c(c1)OCC[C@@H]2c1ccc(C(F)(F)F)cc1CCCF` (racemic) [Example 161, (R/S)-4-(2-(3-fluoropropyl)-4-(trifluoromethyl)phenyl)-N-(pyridazin-3-yl)chroman-7-sulfonamide]: the IC50 at Nav 1.5 (read-out: Nav1.5 IC50) came out at 1.35 µM; at Nav 1.7, 12 nM.
The corresponding values for `O=S(=O)(Nc1cccc(F)n1)c1ccc2c(c1)OCC[C@@H]2c1ccc(C(F)(F)F)cc1CCCF` (racemic) [Example 162, (R/S)-4-(2-(3-fluoropropyl)-4-(trifluoromethyl)phenyl)-N-(6-fluoropyridin-2-yl)chroman-7-sulfonamide] are 2.64 µM and 0.7 nM.
In the case of `O=S(=O)(Nc1ncccn1)c1ccc2c(c1)OCC[C@@H]2c1ccc(C(F)(F)F)cc1CCCCF` (racemic) [Example 163, (R/S)-4-(2-(4-fluorobutyl)-4-(trifluoromethyl)phenyl)-N-(pyrimidin-2-yl)chroman-7-sulfonamide], the figures for the IC50 on Nav 1.5 (read-out: Nav1.5 IC50) and on Nav 1.7 were 0.307 µM and 42 nM, respectively.
`O=S(=O)(Nc1ncc(F)cn1)c1ccc2c(c1)OCC[C@@H]2c1ccc(C(F)(F)F)cc1CCCCF` (racemic) [Example 164, (R/S)-4-(2-(4-fluorobutyl)-4-(trifluoromethyl)phenyl)-N-(5-fluoropyrimidin-2-yl)chroman-7-sulfonamide] showed an inhibition at 10 µM on Nav 1.5 of 81%. Further, on Nav 1.7, the 50% inhibitory concentration (IC50) was determined as 61 nM.
Consider `O=S(=O)(Nc1ccncn1)c1ccc2c(c1)OCC[C@@H]2c1ccc(C(F)(F)F)cc1CCCCF` (racemic) [Example 165, (R/S)-4-(2-(4-fluorobutyl)-4-(trifluoromethyl)phenyl)-N-(pyrimidin-4-yl)chroman-7-sulfonamide], for which the results for the IC50 at Nav 1.5 (read-out: Nav1.5 IC50) and at Nav 1.7 were 0.303 µM and 5 nM, respectively.
Regarding `O=S(=O)(Nc1cccnn1)c1ccc2c(c1)OCC[C@@H]2c1ccc(C(F)(F)F)cc1CCCCF` (racemic) [Example 166, (R/S)-4-(2-(4-fluorobutyl)-4-(trifluoromethyl)phenyl)-N-(pyridazin-3-yl)chroman-7-sulfonamide], the figures for the IC50 at Nav 1.5 (read-out: Nav1.5 IC50) and at Nav 1.7 were 0.134 µM and 50 nM, respectively.
For the molecule `O=S(=O)(Nc1cccc(F)n1)c1ccc2c(c1)OCC[C@@H]2c1ccc(C(F)(F)F)cc1CCCCF` (racemic) [Example 167, (R/S)-4-(2-(4-fluorobutyl)-4-(trifluoromethyl)phenyl)-N-(6-fluoropyridin-2-yl)chroman-7-sulfonamide], the figures for the IC50 at Nav 1.5 (read-out: Nav1.5 IC50) and on Nav 1.7 were 0.241 µM and 58 nM, respectively.
For `O=S(=O)(Nc1ncc(F)cn1)c1ccc2c(c1)OCC[C@@H]2c1ccc(C(F)(F)F)cc1O[C@H]1CCOC1` (racemic) [Example-182, (S/R)—N-(5-fluoropyrimidin-2-yl)-4-(2-(((S)-tetrahydrofuran-3-yl)oxy)-4-(trifluoromethyl)phenyl)chroman-7-sulfonamide], the inhibition at 10 µM at Nav 1.5 was 30%. At Nav 1.7, the IC50 came out at 55 nM.
Take `O=S(=O)(Nc1ccncn1)c1ccc2c(c1)OCC[C@@H]2c1ccc(C(F)(F)F)cc1O[C@H]1CCOC1` (racemic) [Example-183, (S/R)—N-(pyrimidin-4-yl)-4-(2-(((S)-tetrahydrofuran-3-yl)oxy)-4-(trifluoromethyl)phenyl)chroman-7-sulfonamide]: the results for the IC50 on Nav 1.5 (setting [1]) and at Nav 1.7 were more than 10 µM and 11 nM, respectively.
In turn, `O=S(=O)(Nc1cccnn1)c1ccc2c(c1)OCC[C@@H]2c1ccc(C(F)(F)F)cc1O[C@H]1CCOC1` (racemic) [Example-184, (S/R)—N-(pyridazin-3-yl)-4-(2-(((S)-tetrahydrofuran-3-yl)oxy)-4-(trifluoromethyl)phenyl)chroman-7-sulfonamide] came in with an inhibition at 10 µM against Nav 1.5 of 67%. The IC50 at Nav 1.7 was found to be 170 nM.
As to `O=C(O)c1ccc(-c2cc(C(F)(F)F)ccc2[C@H]2CCOc3cc(S(=O)(=O)Nc4cccnn4)ccc32)cc1` (racemic) [Example-191, (R/S)-2′-(7-(N-(pyridazin-3-yl)sulfamoyl)chroman-4-yl)-5′-(trifluoromethyl)-[1,1′-biphenyl]-4-carboxylic acid], the IC50 is more than 10 µM on Nav 1.5 (setting [1]) and 671 nM at Nav 1.7.
Turning to `O=C(O)c1ccc(-c2cc(C(F)(F)F)ccc2[C@H]2CCOc3cc(S(=O)(=O)Nc4cccc(F)n4)ccc32)cc1` (racemic) [Example-192, (R/S)-2′-(7-(N-(6-fluoropyridin-2-yl)sulfamoyl)chroman-4-yl)-5′-(trifluoromethyl)-[1,1′-biphenyl]-4-carboxylic acid], the IC50 is more than 10 µM at Nav 1.5 (setting [1]) and 8 nM at Nav 1.7.

The values above are taken from US10239869B2, “Sulfonamide compounds as voltage-gated sodium channel modulators” (LUPIN LIMITED, priority 2015, dated 2019).
